Here are results for two compounds from ChEMBL document CHEMBL1130724, “Synthesis and biological activity of [Tic5] didemnin B” (Bioorg Med Chem Lett, 1998).

pIC50: −log10 of the molar value.

For this experiment, the species on record is Oryctolagus cuniculus. Kind of experiment: Compound was tested for inhibitory effect on protein biosynthesis in rabbit reticulocyte lysates. Type of experiment: functional.

For orientation: pIC50 means the negative decadic logarithm of the IC50, by convention in mol/L. High values mean a small IC50, low ones a large IC50.

In turn, `CC[C@H](C)[C@H]1NC(=O)[C@@H](NC(=O)[C@@H](CC(C)C)N(C)C(=O)C2CCCN2C(=O)[C@H](C)O)[C@@H](C)OC(=O)[C@@H]2Cc3ccccc3CN2C(=O)[C@@H]2CCCN2C(=O)[C@H](CC(C)C)NC(=O)[C@@H](C)C(=O)[C@H](C(C)C)OC(=O)C[C@@H]1O` (some centres not stated) showed a pIC50 of 5.57.
As for `CC[C@H](C)[C@H]1NC(=O)[C@@H](NC(=O)[C@@H](CC(C)C)N(C)C(=O)C2CCCN2C(=O)[C@H](C)O)[C@@H](C)OC(=O)[C@H](CC(C)C)N(C)C(=O)[C@@H]2CCCN2C(=O)[C@H](CC(C)C)NC(=O)[C@@H](C)C(=O)[C@H](C(C)C)OC(=O)C[C@@H]1O` (some centres not stated) [[N-ME LEU5] DIDEMNIN B], the pIC50 was 5.05.
